Reference: patent US6080758A, “Benzenesulfonamide derivatives as bradykinin antagonists” (Fournier Industrie et Sante, priority 1995, dated 2000)

What follows are compounds tested against T1, bradykinin B2 receptor (Cavia porcellus, UniProt O70526) (assay: [3H]-bradykinin binding to guinea-pig ileum membranes). Conditions: test compound 10^-6 M, [3H]-bradykinin 120 pM, 90 min at 20° C., read-out: Activity (%): percentage inhibition of the binding of [3H]-bradykinin.
T1 construct: Ileum segments are isolated from male guinea-pigs; tissue Iffa Credo, l'Arbresle, France (supplier of the animals); host or cells: ileum membranes of male Dunkin-Hartley guinea-pigs
T1 sequence (O70526 1-372): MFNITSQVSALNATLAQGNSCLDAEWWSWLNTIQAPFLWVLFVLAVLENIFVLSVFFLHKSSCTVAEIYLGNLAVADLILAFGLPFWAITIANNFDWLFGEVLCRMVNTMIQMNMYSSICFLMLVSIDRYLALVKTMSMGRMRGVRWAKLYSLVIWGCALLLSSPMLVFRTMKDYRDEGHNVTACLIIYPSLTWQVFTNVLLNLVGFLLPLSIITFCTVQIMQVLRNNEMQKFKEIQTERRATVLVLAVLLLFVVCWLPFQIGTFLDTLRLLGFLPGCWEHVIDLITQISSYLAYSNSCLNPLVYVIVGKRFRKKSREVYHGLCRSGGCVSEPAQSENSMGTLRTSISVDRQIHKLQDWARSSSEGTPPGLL
Experimental: We used the following pharmacological test: Ileum segments are isolated from male guinea-pigs of the Dunkin-Hartley strain (Iffa Credo, l'Arbresle, France) and ground in the following TES buffer: TES 25 mM, 1,10-phenanthroline 1 mM (pH 6.8), bacitracin 140 μg/ml, BSA 1 g/l. The membranes are then isolated by centrifugation (18,000 rpm; 20 min; 4° C.). The binding studies are carried out in the TES buffer using [^3 H]-bradykinin (120 pM) and 50 μg of membrane protein per test (final volume 500 μl) with an equilibrium time of 90 min at 20° C. The percentage inhibition of the binding of [^3 H]-bradykinin is then determined in the presence of one of the test compounds according to the invention at a concentration of 10^-6 M.
The results obtained (indicated as "activity") from these tests are collated in Table I below with reference to the Examples given in the description.

SMILES | inhibition at 1 µM [%]
COC(=O)C1CCCN1S(=O)(=O)c1ccc(Cl)c(COc2cccc3ccc(C)nc23)c1Cl (racemic) [Example 1, N-[[3-[(2-Methylquinolin-8-yl)oxymethyl]-2,4-dichlorophenyl]sulfonyl]-D,L-proline Methyl Ester] | 97.8
Cc1ccc2cccc(OCc3c(Cl)ccc(S(=O)(=O)N4CCCC4C(=O)OCCCN(C)C)c3Cl)c2n1 (racemic) [Example 11, N-[[3-[(2-Methylquinolin-8-yl)oxymethyl]-2,4-dichlorophenyl]sulfonyl]-D,L-proline 3-(dimethylamino)propyl Ester] | 76.9
Cc1ccc2cccc(OCc3c(Cl)ccc(S(=O)(=O)N4CCCC4C(=O)NCCCN)c3Cl)c2n1 (stereo not shown) [Example 9, 1-[[3-[(2-Methylquinolin-8-yl)oxymethyl]-2,4-dichlorophenyl]sulfonyl]-N-[3-aminopropyl]-2-pyrrolidinecarboxamide] | 97.6
Cc1ccc2cccc(OCc3c(Cl)ccc(S(=O)(=O)N4CCCC4C(=O)NCCCO)c3Cl)c2n1 (stereo not shown) [Example 6] | 90.9
Cc1ccc2cccc(OCc3c(Cl)ccc(S(=O)(=O)N4CCCC4)c3Cl)c2n1 [Example 16, 1-[[3-[(2-Methylquinolin-8-yl)oxymethyl]-2,4-dichlorophenyl]sulfonyl]-pyrrolidine] | 90.1
CCNC(=O)[C@@H]1CCCN1S(=O)(=O)c1ccc(Cl)c(COc2cccc3ccc(C)nc23)c1Cl [Example 12, 1-[[3-[(2-Methylquinolin-8-yl)oxymethyl]-2,4-dichlorophenyl]sulfonyl]-N-ethyl-2-(S)-pyrrolidinecarboxamide] | 98.5
Cc1ccc2cccc(OCc3c(Cl)ccc(S(=O)(=O)N4CCCC4C(=O)NCCCCCO)c3Cl)c2n1 (stereo not shown) [Example 7, 1-[[3-[(2-Methylquinolin-8-yl)oxymethyl]-2,4-dichlorophenyl]sulfonyl]-N-[5-hydroxypentyl]-2-pyrrolidinecarboxamide] | 97.8
Cc1ccc2cccc(OCc3c(Cl)ccc(S(=O)(=O)N4CCCC4C(=O)NCCO)c3Cl)c2n1 (stereo not shown) [Example 5, 1-[[3-[(2-Methylquinolin-8-yl)oxymethyl]-2,4-dichlorophenyl]sulfonyl]-N-[2-hydroxyethyl]-2-pyrrolidinecarboxamide] | 90.1
Cc1ccc2cccc(OCc3c(Cl)ccc(S(=O)(=O)n4cccc4)c3Cl)c2n1 [Example 17, 1-[[3-[(2-Methylquinolin-8-yl)oxymethyl]-2,4-dichlorophenyl]sulfonyl]pyrrole] | 93.8
Cc1ccc2cccc(OCc3c(Cl)ccc(S(=O)(=O)N4CCCC4C(=O)NCCN(C)C)c3Cl)c2n1 (stereo not shown) [Example 8, 1-[[3-[(2-Methylquinolin-8-yl)oxymethyl]-2,4-dichlorophenyl]sulfonyl]-N-[2-dimethylaminoethyl]-2-pyrrolidinecarboxamide Dihydrochioride] | 95.5
Cc1ccc2cccc(OCc3c(Cl)ccc(S(=O)(=O)N4CCC(O)C4)c3Cl)c2n1 (stereo not shown) [Example 14, 3-Hydroxy-1-[[3-[(2-methylquinolin-8-yl)oxymethyl]-2,4-dichlorophenyl]-sulfonyl]pyrrolidine] | 94
CC(=O)NC1CCN(S(=O)(=O)c2ccc(Cl)c(COc3cccc4ccc(C)nc34)c2Cl)C1 (stereo not shown) [Example 13, 3-[(1-Oxoethyl)amino]-1-[[3-[(2-methylquinolin-8-yl)oxymethyl]-2,4-dichlorophenyl]sulfonyl]pyrrolidine] | 98.6
Cc1ccc2cccc(OCc3c(Cl)ccc(S(=O)(=O)N4CCSC4)c3Cl)c2n1 [Example 15, 3-[[3-[(2-Methylquinolin-8-yl)oxymethyl]-2,4-dichlorophenyl]sulfonyl]-thiazolidine] | 94.9
Cc1ccc2cccc(OCc3c(Cl)ccc(S(=O)(=O)N4CCCC4C(=O)NCc4ccccc4)c3Cl)c2n1 (stereo not shown) [Example 10, 1-[[3-[(2-Methylquinolin-8-yl)oxymethyl]-2,4-dichlorophenyl]sulfonyl]-N-[phenylmethyl]-2-pyrrolidinecarboxamide] | 96.4
COCCNC(=O)C1CCCN1S(=O)(=O)c1ccc(Cl)c(COc2cccc3ccc(C)nc23)c1Cl (stereo not shown) [Example 4, 1-[[3-[(2-Methylquinolin-8-yl)oxymethyl]-2,4-dichlorophenyl]sulfonyl]-N-[2-methoxyethyl]-2-pyrrolidinecarboxamide] | 92.6
COC(=O)[C@@H]1CCCN1S(=O)(=O)c1ccc(Cl)c(COc2cccc3ccc(C)nc23)c1Cl [Example 2, N-[[3-[(2-Methylquinolin-8-yl)oxymethyl]-2,4-dichlorophenyl]sulfonyl]-L-proline Methyl Ester] | 98.6
